Laboratory results: patent US9428536B2, “Immunostimulatory G, U-containing oligoribonucleotides” (Zoetis Belgium SA, priority 2002, dated 2016)

Molecular target: T1, human TLR7 (Homo sapiens, UniProt Q9NYK1)
T1 construct: All full-length TLR fragments were cloned into pGEM-T Easy vector; expressed in transfected cells; host or cells: 293 HEK cells (ATCC), transient electroporation with pcDNA3.1(-) TLR expression plasmid
T1 sequence (Q9NYK1 27-1049): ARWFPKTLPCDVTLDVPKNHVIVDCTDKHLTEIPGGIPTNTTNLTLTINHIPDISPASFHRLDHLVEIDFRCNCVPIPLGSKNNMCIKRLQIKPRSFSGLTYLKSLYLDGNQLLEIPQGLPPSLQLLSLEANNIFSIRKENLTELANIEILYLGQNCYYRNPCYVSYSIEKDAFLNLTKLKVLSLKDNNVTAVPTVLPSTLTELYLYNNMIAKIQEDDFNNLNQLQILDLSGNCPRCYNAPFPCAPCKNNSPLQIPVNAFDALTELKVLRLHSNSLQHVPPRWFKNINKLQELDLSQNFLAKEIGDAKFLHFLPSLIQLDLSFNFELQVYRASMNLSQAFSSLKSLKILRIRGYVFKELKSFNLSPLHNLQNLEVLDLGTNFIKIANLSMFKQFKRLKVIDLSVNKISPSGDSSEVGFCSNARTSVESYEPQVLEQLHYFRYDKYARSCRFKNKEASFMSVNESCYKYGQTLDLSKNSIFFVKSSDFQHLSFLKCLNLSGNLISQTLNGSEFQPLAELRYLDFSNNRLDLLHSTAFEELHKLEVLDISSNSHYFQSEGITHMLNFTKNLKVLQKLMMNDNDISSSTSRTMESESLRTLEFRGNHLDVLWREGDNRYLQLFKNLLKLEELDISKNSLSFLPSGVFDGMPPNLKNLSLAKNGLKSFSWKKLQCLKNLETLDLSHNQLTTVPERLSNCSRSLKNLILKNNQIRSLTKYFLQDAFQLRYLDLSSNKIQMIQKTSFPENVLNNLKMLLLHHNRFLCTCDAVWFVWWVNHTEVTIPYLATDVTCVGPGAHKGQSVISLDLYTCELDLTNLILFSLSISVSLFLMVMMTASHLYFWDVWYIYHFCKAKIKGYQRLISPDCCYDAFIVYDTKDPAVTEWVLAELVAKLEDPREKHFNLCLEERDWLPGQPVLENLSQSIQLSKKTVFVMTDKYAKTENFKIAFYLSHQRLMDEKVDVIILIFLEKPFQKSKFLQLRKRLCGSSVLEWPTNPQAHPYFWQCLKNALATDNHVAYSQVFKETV
Test: NF-κB luciferase reporter in 293 HEK cells transfected with human TLR7
Format: cell-based
Conditions: FIG. 12; transient transfectants; 7 hours stimulation
Description: FIG. 12 depicts the responsiveness of human TLR7 and human TLR8 to ribonucleosides. It was determined that the response by human PBMC to RNA or RVC was mediated by TLR7 or TLR8 and further that the response could be driven by ribonucleosides only. Human 293 cells were either mock-transfected or transfected with human TLR7 or human TLR8 and monitored for responsiveness to ribonucleosides. The open reading frames of human TLR7 (hTLR7) and human TLR8 (hTLR8) were amplified by PCR from a cDNA library of human PBMC using the following primers pairs: for TLR7, 5′-[…]-3′ (SEQ ID NO:15) and 5′-[…]-3′ (SEQ ID NO:16); and for TLR8, 5′-[…]-3′ (SEQ ID NO:17) and 5′-[…]-3′ (SEQ ID NO:18). The sequence information for primer selection was obtained from Genbank accession numbers AF240467 and AF245703. All full-length TLR fragments were cloned into pGEM-T Easy vector (Promega, Mannheim, Germany), excised with NotI, cloned into the expression vector pcDNA 3.1(−) (Invitrogen, Karlsruhe, Germany) and sequenced. Sequences of the coding region of hTLR7 and hTLR8 correspond to the accession numbers AF240467 (SEQ ID NO:25) and AF245703, respectively (SEQ ID NO:29).
For monitoring transient NF-κB activation, 3×10^6 293 HEK cells (ATCC, VA, USA) were electroporated at 200 volt and 960 μF with 1 μg TLR expression plasmid, 20 ng NF-κB luciferase reporter-plasmid and 14 μg of pcDNA3.1(−) plasmid as carrier in 400 μl RPMI medium supplemented with 25% fetal bovine serum (FCS). Cells were seeded at 10^5 cells per well and after over night culture stimulated with R-848 (denoted in FIG. 12 as X; commercially synthesized by GLSynthesis Inc., Worcester, Mass., USA), RVCs or ribonucleosides for a further 7 hours. Stimulated cells were lysed using reporter lysis buffer (Promega, Mannheim, Germany), and lysate was assayed for luciferase activity using a Berthold luminometer (Wildbad, Germany).

CCOCc1nc2c(N)nc3ccccc3c2n1CC(C)(C)O [R-848, 4-amino-α,α-dimethyl-2-ethoxymethyl-1H-imidazo[4,5-c]quinoline-1-ethanol, reference compound]
response of TLR7 transfectants (NF-κB luciferase): responded
